The results in this text go back to patent US8026257B2 (Bristol-Myers Squibb Company, priority 2007, dated 2011).

Counter-ions that a name gives are not always drawn.

One experiment has as its target T1, NK-1 (Homo sapiens, UniProt P25103).
T1 construct: 30 ul/well of a 2×U373 membrane preparation
Put plainly: NK1 radioligand binding assay ([125I]Substance P, U373 membranes). To be noted: U373 cell membranes, 200 pM [125I]Substance P, 1 hour at room temperature. In short, it runs like this:
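U373 cell membranes incubated 1 h at room temperature with [125I]Substance P at its Kd (added as 400 pM 2× solution) in Tris-Cl pH 7.5 with MgCl2, BSA, bacitracin and protease inhibitors. Bound radioligand collected on PEI-treated GF/B filters and counted. IC50 from four-parameter fit of triplicates; L-733,060 defined 100% inhibition.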

In a further experiment the target is hSERT (Homo sapiens, UniProt P31645). As to the kind of experiment: SERT radioligand binding assay ([125I]RTI-55, HEK-hSERT membranes). To be noted: HEK-293 hSERT membranes, 260 pM [125I]RTI-55, 1 hour at room temperature; read-out: SERT IC50. In a few lines: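 Crude membranes from HEK-293 cells expressing hSERT (15 ug/ml, 2× stock) were incubated 1 hour at room temperature with [125I]RTI-55 (520 pM, 2× stock; at Kd) in pH 7.5 Tris, 120 mM NaCl, 5 mM KCl. Bound ligand was collected by GF/B filtration and scintillation counted. IC50 came from four-parameter fit, fluoxetine defining 100% inhibition.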
hSERT, sequence (P31645 whole entry): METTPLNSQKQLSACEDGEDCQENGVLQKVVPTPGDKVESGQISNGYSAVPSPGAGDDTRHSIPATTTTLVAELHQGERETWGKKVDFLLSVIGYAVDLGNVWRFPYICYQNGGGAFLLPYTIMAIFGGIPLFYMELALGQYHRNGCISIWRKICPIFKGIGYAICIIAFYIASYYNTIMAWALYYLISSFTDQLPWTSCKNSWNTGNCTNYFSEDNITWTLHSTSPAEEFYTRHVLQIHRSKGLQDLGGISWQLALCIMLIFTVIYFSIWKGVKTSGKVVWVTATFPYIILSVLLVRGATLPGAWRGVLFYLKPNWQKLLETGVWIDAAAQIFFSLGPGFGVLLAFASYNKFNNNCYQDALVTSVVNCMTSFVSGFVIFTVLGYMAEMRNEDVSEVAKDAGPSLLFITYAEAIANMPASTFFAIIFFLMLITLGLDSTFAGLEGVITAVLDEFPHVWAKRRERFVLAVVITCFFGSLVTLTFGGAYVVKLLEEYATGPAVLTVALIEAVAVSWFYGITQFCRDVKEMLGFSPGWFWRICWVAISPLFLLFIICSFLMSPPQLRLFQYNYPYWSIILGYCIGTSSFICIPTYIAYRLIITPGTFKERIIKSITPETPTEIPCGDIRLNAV

T1 sequence (P25103 whole entry): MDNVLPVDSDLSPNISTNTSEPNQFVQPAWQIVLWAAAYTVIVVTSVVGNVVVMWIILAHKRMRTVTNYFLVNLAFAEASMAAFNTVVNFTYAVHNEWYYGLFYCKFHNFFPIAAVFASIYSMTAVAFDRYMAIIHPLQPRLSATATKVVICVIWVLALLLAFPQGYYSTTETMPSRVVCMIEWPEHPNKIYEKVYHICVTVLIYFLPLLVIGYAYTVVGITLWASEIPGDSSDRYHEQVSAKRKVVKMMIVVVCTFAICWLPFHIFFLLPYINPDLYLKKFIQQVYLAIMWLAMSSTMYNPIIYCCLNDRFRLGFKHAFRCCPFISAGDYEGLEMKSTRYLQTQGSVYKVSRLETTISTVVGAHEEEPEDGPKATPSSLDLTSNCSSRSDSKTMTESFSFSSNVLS

As usually defined, the IC50 is the concentration needed to halve the response being measured. For `CN1CCC(COCc2cc(C(F)(F)F)cc3c2nnn3C)(c2ccc(F)cc2)CC1` [Example 80, 4-(((4-(4-Fluorophenyl)-1-methylpiperidin-4-yl)methoxy)methyl)-1-methyl-6-(trifluoromethyl)-1H-benzo[d][1,2,3]triazole], the results for the IC50 on NK-1 and on hSERT were 100 to 300 nM and 0.01 to 100 nM, respectively.
With `CN1CCC(COCc2nc3cc(-c4ccc(C#N)cc4)ccc3n2CC2CC2)(c2ccccc2)CC1` [Example 81, 4-(1-(Cyclopropylmethyl)-2-(((1-methyl-4-phenylpiperidin-4-yl)methoxy)methyl)-1H-benzo[d]imidazol-5-yl)benzonitrile], the figures for the IC50 on NK-1 and on hSERT were over 300 nM and 0.01 to 100 nM, respectively.
For `CN1CCC(COCc2nc3cc(Br)ccc3n2CC2CC2)(c2ccccc2)CC1` [Example 82, 5-Bromo-1-(cyclopropylmethyl)-2-(((1-methyl-4-phenylpiperidin-4-yl)methoxy)methyl)-1H-benzo[d]imidazole], the IC50 is over 300 nM on NK-1 and 0.01 to 100 nM on hSERT.
On to `CN1CCC(COCc2nc3ccc(Br)cc3n2CC2CC2)(c2ccccc2)CC1` [Example 83, 6-Bromo-1-(cyclopropylmethyl)-2-(((1-methyl-4-phenylpiperidin-4-yl)methoxy)methyl)-1H-benzo[d]imidazole], for which the values for the IC50 on NK-1 and on hSERT were over 300 nM and 0.01 to 100 nM, respectively.
As to `CN1CCC(COCc2nc3cc(-c4ccc(Cl)cc4Cl)ccc3n2CC2CC2)(c2ccccc2)CC1` [Example 84, 1-(Cyclopropylmethyl)-5-(2,4-dichlorophenyl)-2-(((1-methyl-4-phenylpiperidin-4-yl)methoxy)methyl)-1H-benzo[d]imidazole], the figures for the IC50 at NK-1 and on hSERT were over 300 nM and 0.01 to 100 nM, respectively.
On to `CN1CCC(COCc2nc3ccc(C4CC4)cc3n2CC2CC2)(c2ccccc2)CC1` [Example 85, 6-Cyclopropyl-1-(cyclopropylmethyl)-2-(((1-methyl-4-phenylpiperidin-4-yl)methoxy)methyl)-1H-benzo[d]imidazole], for which the IC50 at NK-1 is over 300 nM; at hSERT it was 0.01 to 100 nM.
Turning to `CN1CCC(COCc2nc3cc(C(F)(F)F)ccc3n2CC2CC2)(c2ccccc2)CC1` [Example 86, 1-(Cyclopropylmethyl)-2-(((1-methyl-4-phenylpiperidin-4-yl)methoxy)methyl)-5-(trifluoromethyl)-1H-benzo[d]imidazole], the IC50 on NK-1 is over 300 nM; at hSERT it was 0.01 to 100 nM.
`CN1CCC(COCc2nc3ccc(C(F)(F)F)cc3n2CC2CC2)(c2ccccc2)CC1` [Example 87, 1-(Cyclopropylmethyl)-2-(((1-methyl-4-phenylpiperidin-4-yl)methoxy)methyl)-6-(trifluoromethyl)-1H-benzo[d]imidazole]: the half-maximal inhibitory concentration (IC50) at NK-1 is over 300 nM; at hSERT, 0.01 to 100 nM.
On to `COC(=O)C(OCC1(c2ccc(F)cc2)CCN(C)CC1)c1cc(Cl)cc2cn[nH]c12` (centres unmarked) [Example 89, Methyl 2-(5-chloro-1H-indazol-7-yl)-2-((4-(4-fluorophenyl)-1-methylpiperidin-4-yl)methoxy)acetate trifluoroacetic acid salt], for which the IC50 on NK-1 was over 300 nM; on hSERT it was 0.01 to 100 nM.
On the same counts, the results for `CN1CCC(COC(C(=O)O)c2cc(Cl)cc3cn[nH]c23)(c2ccc(F)cc2)CC1` (centres unmarked) [Example 90, 2-(5-Chloro-1H-indazol-7-yl)-2-((4-(4-fluorophenyl)-1-methylpiperidin-4-yl)methoxy)acetic acid trifluoroacetic acid salt] are over 300 nM and 0.01 to 100 nM.
Take `CN1CCC(COC(C(=O)N(C)C)c2cc(Cl)cc3cn[nH]c23)(c2ccc(F)cc2)CC1` (centres unmarked) [Example 91, 2-(5-Chloro-1H-indazol-7-yl)-2-((4-(4-fluorophenyl)-1-methylpiperidin-4-yl)methoxy)-N,N-dimethylacetamide trifluoroacetic acid salt]: the IC50 is over 300 nM on NK-1 and 0.01 to 100 nM on hSERT.
As for `CN1CCC(COC(CO)c2cc(Cl)cc3cn[nH]c23)(c2ccc(F)cc2)CC1` (centres unmarked) [Example 92, 2-(5-Chloro-1H-indazol-7-yl)-2-((4-(4-fluorophenyl)-1-methylpiperidin-4-yl)methoxy)ethanol trifluoroacetic acid salt], the concentration for half-maximal inhibition (IC50) on NK-1 and at hSERT was 0.01 to 100 nM throughout.
Regarding `COCC(OCC1(c2ccc(F)cc2)CCN(C)CC1)c1cc(Cl)cc2cn[nH]c12` (centres unmarked) [Example 93, 5-Chloro-7-(1-((4-(4-fluorophenyl)-1-methylpiperidin-4-yl)methoxy)-2-methoxyethyl)-1H-indazole trifluoroacetic acid salt], the IC50 on NK-1 and at hSERT was 0.01 to 100 nM each time.
Consider `CN1CCC(COC(CF)c2cc(Cl)cc3cn[nH]c23)(c2ccc(F)cc2)CC1` (centres unmarked) [Example 94, 5-Chloro-7-(2-fluoro-1-((4-(4-fluorophenyl)-1-methylpiperidin-4-yl)methoxy)ethyl)-1H-indazole], for which the IC50 at NK-1 and on hSERT was 0.01 to 100 nM throughout.
As to `CN1CCC(COC(C#N)c2cc(Cl)cc3cn[nH]c23)(c2ccc(F)cc2)CC1` (centres unmarked) [Example 95, 2-(5-Chloro-1H-indazol-7-yl)-2-((4-(4-fluorophenyl)-1-methylpiperidin-4-yl)methoxy)acetonitrile], the IC50 on NK-1 and on hSERT was 0.01 to 100 nM in each case.
On to `CC(OCC1(c2ccc(F)cc2)CCN(C)CC1)c1cc(Cl)cc2[nH]c(=O)[nH]c12` (centres unmarked) [Example 96, 6-Chloro-4-(1-((4-(4-fluorophenyl)-1-methylpiperidin-4-yl)methoxy)ethyl)-1H-benzo[d]imidazol-2(3H)-one trifluoroacetic acid salt], for which the IC50 fell in the range of 100 to 300 nM on NK-1 and 0.01 to 100 nM at hSERT.
Regarding `CC(OCC1(c2ccc(F)cc2)CCN(C)CC1)c1cc(Cl)cc2[nH]c(=O)n(C)c12` (centres unmarked) [Example 97, 5-Chloro-7-(1-((4-(4-fluorophenyl)-1-methylpiperidin-4-yl)methoxy)ethyl)-1-methyl-1H-benzo[d]imidazol-2(3H)-one trifluoroacetic acid salt], the IC50 at NK-1 is 100 to 300 nM; on hSERT, 0.01 to 100 nM.
In the case of `CC(OCC1(c2ccc(F)cc2)CCN(C)CC1)c1cc(Cl)cc2c1[nH]c(=O)n2C` (centres unmarked) [Example 98, 6-Chloro-4-(1-((4-(4-fluorophenyl)-1-methylpiperidin-4-yl)methoxy)ethyl)-1-methyl-1H-benzo[d]imidazol-2(3H)-one trifluoroacetic acid salt], the IC50 at NK-1 and on hSERT was 0.01 to 100 nM throughout.
On to `C[C@@H](OCC1(c2ccc(F)cc2)CCNCC1)c1cc(Cl)cc2c(Cl)n[nH]c12` [Example 99, (R)-3,5-Dichloro-7-(1-((4-(4-fluorophenyl)piperidin-4-yl)methoxy)ethyl)-1H-indazole], for which the IC50 at NK-1 and on hSERT was 0.01 to 100 nM throughout.
Regarding `C[C@@H](OCC1(c2ccc(F)cc2)CCN(C)CC1)c1cc(Cl)cc2c(Cl)n[nH]c12` [Example 100, (R)-3,5-Dichloro-7-(1-((4-(4-fluorophenyl)-1-methylpiperidin-4-yl)methoxy)ethyl)-1H-indazole], the IC50 on NK-1 and at hSERT was 0.01 to 100 nM each time.
As for `C[C@@H](OCC1(c2ccc(F)cc2)CCNCC1)c1cc(Br)cc2c(Br)n[nH]c12` [Example 101, (R)-3,5-Dibromo-7-(1-((4-(4-fluorophenyl)piperidin-4-yl)methoxy)ethyl)-1H-indazole], the IC50 on NK-1 and at hSERT was 0.01 to 100 nM throughout.
On to `C[C@@H](OCC1(c2ccc(F)cc2)CCN(C)CC1)c1cc(Br)cc2c(Br)n[nH]c12` [Example 102, (R)-3,5-Dibromo-7-(1-((4-(4-fluorophenyl)-1-methylpiperidin-4-yl)methoxy)ethyl)-1H-indazole], for which the IC50 at NK-1 and on hSERT was 0.01 to 100 nM each time.
Regarding `Cc1n[nH]c2c([C@@H](C)OCC3(c4ccc(F)cc4)CCN(C)CC3)cc(Cl)cc12` [Example 103, (R)-5-Chloro-7-(1-((4-(4-fluorophenyl)-1-methylpiperidin-4-yl)methoxy)ethyl)-3-methyl-1H-indazole], the IC50 on NK-1 and at hSERT was 0.01 to 100 nM throughout.
As for `C[C@@H](OCC1(c2ccc(F)cc2)CCNCC1)c1cc(Cl)cc2cn(CC3CC3)nc12` [Example 104], the IC50 at NK-1 and on hSERT was 0.01 to 100 nM each time.
For `C[C@@H](OCC1(c2ccc(F)cc2)CCN(C)CC1)c1cc(Cl)cc2cn(CC3CC3)nc12` [Example 105, (R)-5-chloro-2-(cyclopropylmethyl)-7-(1-((4-(4-fluorophenyl)-1methylpiperidin-4-yl)methoxy)ethyl)-2H-indazole], the IC50 at NK-1 and on hSERT was 0.01 to 100 nM each time.
Consider `C[C@@H](OCC1(c2ccc(F)cc2)CCN(C)CC1)c1cc(Cl)cc2cnn(CC3CC3)c12` [Example 106, (R)-5-chloro-1-(cyclopropylmethyl)-7-(1-((4-(4-fluorophenyl)-1methylpiperidin-4-yl)methoxy)ethyl)-1H-indazole], for which the IC50 at NK-1 and on hSERT was 0.01 to 100 nM in each case.
In the case of `C[C@@H](OCC1(c2ccc(F)cc2)CCN(C)CC1)c1cc(Cl)cc2cn(CC#N)nc12` [Example 107, (R)-2-(5-chloro-7-(1-((4-(4-fluorophenyl)-1-methylpiperidine-4-yl)methoxy)ethyl)-2H-indazole-2-yl)acetonitrile], the IC50 on NK-1 and at hSERT was 0.01 to 100 nM throughout.
For `C[C@@H](OCC1(c2ccc(F)cc2)CCN(C)CC1)c1cc(Cl)cc2cnn(CC#N)c12` [Example 108], the IC50 on NK-1 and on hSERT was 0.01 to 100 nM throughout.
